In one assay the test system is Colletotrichum capsici. As to the kind of experiment: Colletotrichum capsici (anthracnose) mycelial radial growth on potato dextrose agar. The assay is classed as cell-based. To be noted: Colletotrichum truncatum, 168 h, 25° C., seven days, read-out: control compared to the untreated check. The protocol:
The compounds were dissolved in 0.3% dimethyl sulfoxide and then added to potato dextrose agar medium just prior to dispensing it into petri dishes. 5 mL medium, with the compound in the desired concentration, was dispensed into 60 mm sterile petri-plates. After solidification, each plate was seeded with a 5 mm size mycelial disc taken from the periphery of an actively growing virulent culture plate. The plates were incubated in growth chambers at 25° C. temperature and 60% relative humidity for seven days and the radial growth was measured and compared to the one of the untreated control.

The subject of another assay is Pyricularia oryzae. Kind of assay: microbe, parasite or virus in culture. The assay is classed as cell-based. Particulars: 168 h, read-out: control compared to the untreated check.
Assay [1] concerns Botrytis cinerea. As to the kind of experiment: Botrytis cinerea liq. (BOTRCI) spore growth inhibition in liquid medium, 96-well microtiter plate, OD 405 nm. To be noted: spore suspension in YBA liquid medium, 22° C., 5-6 days, OD at 405 nm, read-out: control compared to the untreated check. The format is cell-based. The protocol: Yeast bacterial peptone and sodium acetate (YBA) liquid medium containing a BOTRCI (10^4 spores/ml) spore suspension was prepared. For the inhibition assay, each test compound was solved in dimethyl sulfoxide. 100 μl of the test compound in media-solution was added to a 96-well microtiter plate, consequently, the same volume (100 μl) of spore suspension was added to the well making the final test concentrations and the plate was incubated at 22° C. for 5-6 days. The growth inhibition was evaluated by measuring the OD at 405 nm. Percent inhibition was calculated with the below formula:
Where T=treatment, C=control, and B=blank

The next assay has as its system Parastagonospora nodorum. As to the kind of experiment: Parastagonospora nodorum (PARANO) spore growth inhibition in liquid medium, 96-well microtiter plate, OD 600. The format is cell-based. Particulars: spore suspension in PDB liquid medium, 18° C., 5-6 days, OD at 600, read-out: control compared to the untreated check. The method, then:
Potato dextrose (PDB) liquid medium (Difco) containing a PARANO (10^5 spores/ml) spore suspension was prepared. For the inhibition assay, each test compound was solved in dimethyl sulfoxide. 100 μl of the test compound in media-solution was added to a 96-well microtiter plate, consequently, the same volume (100 μl) of spore suspension was added to the well making the final test concentrations and the plate was incubated at 18° C. for 5-6 days. The growth inhibition was evaluated by measuring the OD at 600. Percent inhibition was calculated with the below formula: […]

In assay [2] the test system is Botrytis cinerea. As to the kind of experiment: Botrytis cinerea test on tomato, preventive, greenhouse. The format is in vivo. To be noted: preventive spray on bean/chili plants (heading: tomato), inoculated one day after treatment, read-out: control (efficacy, disease severity) compared to the untreated check.
The next assay deals with Phakopsora pachyrhizi. As to the kind of experiment: Phakopsora pachyrhizi test on soybean, preventive, greenhouse. The format is in vivo. To be noted: preventive spray on soybean, inoculated one day after treatment, read-out: control (efficacy, disease severity) compared to the untreated check. The protocol:
The respective compound was dissolved in 2% dimethyl sulfoxide/acetone and then mixed with water containing emulsifier to the calibrated spray volume of 30 mL. Each spray solution was poured into a spray bottle for further application.
To test the preventive activity of a compound, healthy young soybean plants, raised in the greenhouse, were sprayed with the active compound preparation at the stated application rate inside the spray cabinets using hollow cone nozzles. One day after treatment, the plants were inoculated with a conidial suspension containing 2×10^5 Phakopsora pachyrhizi inoculum. The inoculated plants were then kept in a greenhouse chamber at 22-24° C. temperature and 80-90% relative humidity for disease expression.

The subject of another assay is Phytophthora infestans. Kind of assay: microbe, parasite or virus in culture. The format is cell-based. Particulars: 168 h, read-out: control compared to the untreated check.

Regarding `CC(c1ccccc1)C(C)(C)NC(=O)c1cnc2c(ccn2C)c1` (centres unmarked) [Compound 8, 1-methyl-N-(2-methyl-3-phenylbutan-2-yl)-1H-pyrrolo[2,3-b] pyridine-5-carboxamide], the inhibition of growth at 300 ppm with Colletotrichum capsici, in the assay with Pyricularia oryzae, with Botrytis cinerea [1] and with Parastagonospora nodorum was ≥ 70% throughout.

`Cn1ccc2cc(C(=O)NC(C)(C)Cc3ccc(F)cc3F)cnc21` [Compound 20]: the inhibition of growth at 300 ppm in the assay on Colletotrichum capsici, with Pyricularia oryzae and in the assay on Botrytis cinerea [1] was ≥ 70% in each case.

On to `Cn1cc(Br)c2cc(C(=O)NC(C)(C)Cc3ccccc3)cnc21` [Compound 46], for which the pest or weed control at 500 ppm in the assay on Botrytis cinerea [2] and in the assay on Phakopsora pachyrhizi was ≥ 70% throughout. Further, the inhibition of growth at 300 ppm in the assay on Pyricularia oryzae was ≥ 70%.

In the case of `Cn1cc(F)c2cc(C(=O)NC(C)(C)Cc3ccc(Cl)cc3)cnc21` [Compound 66, N-(1-(4-chlorophenyl)-2-methylpropan-2-yl)-3-fluoro-1-methyl-1H-pyrrolo[2,3-b]pyridine-5-carboxamide], the pest or weed control at 500 ppm with Botrytis cinerea [2] and in the assay with Phakopsora pachyrhizi was ≥ 70% in each case.

For `Cn1ccc2cc(C(=O)NC3Cc4ccccc4C3)cnc21` [Compound 76, N-(2,3-dihydro-1H-inden-2-yl)-1-methyl-1H-pyrrolo[2,3-b] pyridine-5-carboxamide], the pest or weed control at 500 ppm in the assay with Botrytis cinerea [2] and in the assay with Phakopsora pachyrhizi was ≥ 70% throughout.

Take `Cn1cc(Br)c2cc(C(=O)NC(C)(C)Cc3ccccc3Cl)cnc21` [Compound 84, 3-bromo-N-(1-(2-chlorophenyl)-2-methylpropan-2-yl)-1-methyl-1H-pyrrolo[2,3-b]pyridine-5-carboxamide]: the pest or weed control at 500 ppm in the assay on Botrytis cinerea [2] and in the assay with Phakopsora pachyrhizi was ≥ 70% in each case.

For the compound `COc1nc2c(ccn2C)cc1C(=O)NC(C)(C)Cc1ccccc1` [Compound 91, 6-methoxy-1-methyl-N-(2-methyl-1-phenylpropan-2-yl)-1H-pyrrolo[2,3-b] pyridine-5-carboxamide], the inhibition of growth at 300 ppm in the assay with Phytophthora infestans is ≥ 70%.

Take `Cc1nc2[nH]ccc2cc1C(=O)NC(C)(Cc1ccccc1)CC(C)C` (centres unmarked) [Compound 96, N-(2,4-dimethyl-1-phenylpentan-2-yl)-6-methyl-1H-pyrrolo[2,3-b]pyridine-5-carboxamide]: the pest or weed control at 500 ppm in the assay on Botrytis cinerea [2] and with Phakopsora pachyrhizi was ≥ 70% each time.

Turning to `Cc1nc2[nH]ccc2cc1C(=O)NC1(Cc2ccccc2)CC1` [Compound 97, N-(1-benzylcyclopropyl)-6-methyl-1H-pyrrolo[2,3-b]pyridine-5-carboxamide], the pest or weed control at 500 ppm in the assay with Botrytis cinerea [2] and with Phakopsora pachyrhizi was ≥ 70% each time.

Consider `CC(C)(CO)NC(=O)c1cnc2ccsc2c1` [Compound 111, N-(1-hydroxy-2-methylpropan-2-yl)thieno[3,2-b] pyridine-6-carboxamide], for which the inhibition of growth at 300 ppm with Phytophthora infestans is ≥ 70%.

`Cc1cccc(CC(NC(=O)c2cnc3ccsc3c2)C(C)(C)O)c1` (centres unmarked) [Compound 114, N-(3-hydroxy-3-methyl-1-(m-tolyl)butan-2-yl)thieno[3,2-b] pyridine-6-carboxamide]: in the assay on Phytophthora infestans, the inhibition of growth at 300 ppm is ≥ 70%.

Turning to `C=C(C)CC(C)(COc1ccc(F)cc1)NC(=O)c1cnc2ccsc2c1` (centres unmarked) [Compound 122, N-(1-(4-fluorophenoxy)-2,4-dimethylpent-4-en-2-yl)thieno[3,2-b] pyridine-6-carboxamide], the inhibition of growth at 300 ppm in the assay with Colletotrichum capsici was ≥ 70%. Moreover, the pest or weed control at 500 ppm in the assay with Botrytis cinerea [2] was ≥ 70%.

For the compound `COc1cc(C(O)C(C)(C)NC(=O)c2cnc3c(ccn3C)c2)ccc1F` (centres unmarked) [Compound 123, N-(1-(4-fluoro-3-methoxyphenyl)-1-hydroxy-2-methylpropan-2-yl)-1-methyl-1H-pyrrolo[2,3-b]pyridine-5-carboxamide], the inhibition of growth at 300 ppm with Phytophthora infestans was ≥ 70%.

In the case of `COc1cc(C(=O)OCC(C)(C)NC(=O)c2cnc3ccsc3c2)ccc1F` [Compound 124, 2-methyl-2-(thieno[3,2-b]pyridine-6-carboxamido)propyl 4-fluoro-3-methoxybenzoate], the pest or weed control at 500 ppm in the assay on Botrytis cinerea [2] was ≥ 70%. Besides, the inhibition of growth at 300 ppm in the assay with Pyricularia oryzae and in the assay with Parastagonospora nodorum was ≥ 70% in each case.

With `CC(C)(COC(=O)c1ccccc1C(F)(F)F)NC(=O)c1cnc2c(c1)CCCC2` [Compound 150, 2-methyl-2-(5,6,7,8-tetrahydroquinoline-3-carboxamido)propyl 2-(trifluoromethyl)benzoate], the pest or weed control at 500 ppm in the assay on Botrytis cinerea [2] and in the assay with Phakopsora pachyrhizi was ≥ 70% in each case. The inhibition of growth at 300 ppm in the assay with Parastagonospora nodorum is ≥ 70%.

As for `CC(C)(COC(=O)c1cccc(F)c1)NC(=O)c1cnc2cc[nH]c2c1` [Compound 156, 2-methyl-2-(1H-pyrrolo[3,2-b]pyridine-6-carboxamido)propyl 3-fluorobenzoate], the inhibition of growth at 300 ppm in the assay on Phytophthora infestans is ≥ 70%.

Consider `Cn1cc(Br)c2cc(C(=O)NC(C)(C)COCc3ccccc3C#N)cnc21` [Compound 196], for which, in the assay on Phytophthora infestans, the inhibition of growth at 300 ppm is ≥ 70%.

Regarding `Cc1ccc(COCC(C)(C)NC(=O)c2cnc3c(c2)c(Br)cn3C)c(C)c1` [Compound 201, 3-bromo-N-(1-((2,4-dimethylbenzyl)oxy)-2-methylpropan-2-yl)-1-methyl-1H-pyrrolo[2,3-b]pyridine-5-carboxamide], in the assay with Phytophthora infestans, the inhibition of growth at 300 ppm was ≥ 70%.

`CC(C)(COc1ccc(F)cn1)NC(=O)c1cnc2ccsc2c1` [Compound 207, N-(1-((5-fluoropyridin-2-yl)oxy)-2-methylpropan-2-yl)thieno[3,2-b] pyridine-6-carboxamide]: the inhibition of growth at 300 ppm with Phytophthora infestans is ≥ 70%.

As to `Cn1cc(Cl)c2cc(C(=O)NC(C)(C)COc3ccccn3)cnc21` [Compound 219, 3-chloro-1-methyl-N-(2-methyl-1-(pyridin-2-yloxy)propan-2-yl)-1H-pyrrolo[2,3-b] pyridine-5-carboxamide], the inhibition of growth at 300 ppm with Pyricularia oryzae and with Botrytis cinerea [1] was ≥ 70% throughout.

`Cn1cc(Cl)c2cc(C(=O)NC(C)(C)COc3ccc(F)cn3)cnc21` [Compound 221, 3-chloro-N-(1-((5-fluoropyridin-2-yl)oxy)-2-methylpropan-2-yl)-1-methyl-1H-pyrrolo[2,3-b]pyridine-5-carboxamide]: the inhibition of growth at 300 ppm in the assay with Botrytis cinerea [1] was ≥ 70%.

Consider `Cn1cc(Br)c2cc(C(=O)NC(C)(C)COCc3cc(F)ccc3Cl)cnc21` [Compound 232, 3-bromo-N-(1-((2-chloro-5-fluorobenzyl)oxy)-2-methylpropan-2-yl)-1-methyl-1H-pyrrolo[2,3-b]pyridine-5-carboxamide], for which the inhibition of growth at 300 ppm in the assay with Botrytis cinerea [1] and with Parastagonospora nodorum was ≥ 70% throughout.

On to `CON(C(=O)c1cnc2c(ccn2C)c1)C(C)Cc1ccccc1F` (centres unmarked) [Compound 239, N-(1-(2-fluorophenyl)propan-2-yl)-N-methoxy-1-methyl-1H-pyrrolo[2,3-b]pyridine-5-carboxamide], for which the inhibition of growth at 300 ppm in the assay on Pyricularia oryzae, with Botrytis cinerea [1] and in the assay with Parastagonospora nodorum was ≥ 70% each time.

On to `CC(C)(COc1ccccn1)NC(=O)c1cc2c(nc1Cl)CCC2` [Compound 242, 2-chloro-N-(2-methyl-1-(pyridin-2-yloxy)propan-2-yl)-6,7-dihydro-5H-cyclopenta[b]pyridine-3-carboxamide], for which the inhibition of growth at 300 ppm in the assay on Botrytis cinerea [1] is ≥ 70%.

With `CC(C)(COc1ccnc(Cl)c1)NC(=O)c1cc2c(nc1Cl)CCC2` [Compound 244, 2-chloro-N-(1-((2-chloropyridin-4-yl)oxy)-2-methylpropan-2-yl)-6,7-dihydro-5H-cyclopenta[b]pyridine-3-carboxamide], the inhibition of growth at 300 ppm with Botrytis cinerea [1] and in the assay with Parastagonospora nodorum was ≥ 70% throughout.

Take `COc1nc2c(cc1C(=O)NCC1(c3ccccc3)CC1)CCC2` [Compound 247, 2-methoxy-N-((1-phenylcyclopropyl)methyl)-6,7-dihydro-5H-cyclopenta[b]pyridine-3-carboxamide]: the inhibition of growth at 300 ppm with Colletotrichum capsici, in the assay on Botrytis cinerea [1] and in the assay on Parastagonospora nodorum was ≥ 70% in each case.

(Values after patent publication US20250049036A1 (priority 2021, published 2025).)
